# In ChEMBL document CHEMBL1201862, “PubChem BioAssay data set” (2004):
#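 Test compounds were applied to cells in 96-well plates for 48 hours at 5 doses. Abbreviation: GI50, concentration required for 50% inhibition of growth.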 Calls of active or inactive are those of the source. No stated cut-off is given here; in the data, active = GI50 up to about 1.1 µM and inactive = higher.
# Tests used:
# Assay in all cases: NCI anticancer screen, dose series, 48 h
# BT-549 = test system: BT-549
# COLO 205 = test system: COLO 205
# EKVX = test system: EKVX
# HT-29 = test system: HT-29
# IGROV-1 = test system: IGROV-1
# K562 = test system: K562
# MDA-MB-231 = test system: MDA-MB-231
# MOLT-4 = test system: MOLT-4
# Malme-3M = test system: Malme-3M
# NCI-H226 = test system: NCI-H226
# NCI-H23 = test system: NCI-H23
# NCI/ADR-RES = test system: NCI/ADR-RES
# OVCAR-3 = test system: OVCAR-3
# RPMI-8226 = test system: RPMI-8226
# SF-268 = test system: SF-268
# SF-295 = test system: SF-295
# SK-MEL-5 = test system: SK-MEL-5
# SNB-19 = test system: SNB-19
# SR = test system: SR
# SW-620 = test system: SW-620
SMILES,GI50 (BT-549),GI50 (COLO 205),GI50 (EKVX),GI50 (HT-29),GI50 (IGROV-1),GI50 (K562),GI50 (MDA-MB-231),GI50 (MOLT-4),GI50 (Malme-3M),GI50 (NCI-H226),GI50 (NCI-H23),GI50 (NCI/ADR-RES),GI50 (OVCAR-3),GI50 (RPMI-8226),GI50 (SF-268),GI50 (SF-295),GI50 (SK-MEL-5),GI50 (SNB-19),GI50 (SR),GI50 (SW-620)
COc1ccc2nc3cc(Cl)ccc3c(NCCCNCc3cc(OC)c(OC)c(OC)c3)c2c1,1.76 µM (inactive),1.31 µM (inactive),1.47 µM (inactive),1.01 µM (active),1.82 µM (inactive),0.465 µM (active),1.98 µM (inactive),0.515 µM (active),2.23 µM (inactive),1.67 µM (inactive),1.71 µM (inactive),2.08 µM (inactive),1.83 µM (inactive),1.53 µM (inactive),1.67 µM (inactive),1.51 µM (inactive),1.4 µM (inactive),1.83 µM (inactive),1.2 µM (inactive),0.733 µM (active)
NCCCNC1(c2cc3ccccc3s2)CCCCC1,13.8 µM (inactive),1.84 µM (inactive),8.65 µM (inactive),2.95 µM (inactive),10.6 µM (inactive),1.85 µM (inactive),3.86 µM (inactive),3.29 µM (inactive),1.88 µM (inactive),17.1 µM (inactive),15.7 µM (inactive),13.5 µM (inactive),7.19 µM (inactive),1.91 µM (inactive),9.93 µM (inactive),9.48 µM (inactive),1.82 µM (inactive),8.77 µM (inactive),1.77 µM (inactive),4.55 µM (inactive)
CCOC(=O)C1(Cc2ccccc2)Cc2cc3c(cc2C1=O)CCC3 (stereo not given),> 100 µM (inactive),> 100 µM (inactive),> 100 µM (inactive),> 100 µM (inactive),> 100 µM (inactive),> 100 µM (inactive),> 100 µM (inactive),> 100 µM (inactive),> 100 µM (inactive),> 100 µM (inactive),> 100 µM (inactive),> 100 µM (inactive),> 100 µM (inactive),> 100 µM (inactive),> 100 µM (inactive),> 100 µM (inactive),> 100 µM (inactive),> 100 µM (inactive),> 100 µM (inactive),> 100 µM (inactive)
C[C@H](Nc1nc(N)c(N=O)c(=O)n1C)C(=O)O,> 10 µM (inactive),> 10 µM (inactive),> 10 µM (inactive),> 10 µM (inactive),> 10 µM (inactive),> 10 µM (inactive),> 10 µM (inactive),> 10 µM (inactive),> 10 µM (inactive),> 10 µM (inactive),> 10 µM (inactive),> 10 µM (inactive),> 10 µM (inactive),> 10 µM (inactive),> 10 µM (inactive),> 10 µM (inactive),> 10 µM (inactive),> 10 µM (inactive),> 10 µM (inactive),> 10 µM (inactive)
COC(=O)CNC(=O)C(Cc1ccccc1)NC(=O)c1ccc(-c2ccc(Cl)cc2Cl)o1 (stereo not given),26.4 µM (inactive),14.6 µM (inactive),20.3 µM (inactive),14.4 µM (inactive),18.7 µM (inactive),21.3 µM (inactive),19 µM (inactive),14.3 µM (inactive),21.5 µM (inactive),48.4 µM (inactive),23.7 µM (inactive),21.8 µM (inactive),22.4 µM (inactive),12.3 µM (inactive),19.8 µM (inactive),18.7 µM (inactive),31.6 µM (inactive),35.3 µM (inactive),14.9 µM (inactive),34.2 µM (inactive)
Nc1c2ccccc2nc2ccc(C(=O)Nc3ccc(S(N)(=O)=O)cc3)cc12,> 100 µM (inactive),> 100 µM (inactive),> 100 µM (inactive),> 100 µM (inactive),> 100 µM (inactive),> 100 µM (inactive),> 100 µM (inactive),> 100 µM (inactive),> 100 µM (inactive),> 100 µM (inactive),> 100 µM (inactive),> 100 µM (inactive),> 100 µM (inactive),> 100 µM (inactive),> 100 µM (inactive),> 100 µM (inactive),> 100 µM (inactive),> 100 µM (inactive),> 100 µM (inactive),> 100 µM (inactive)
C1COCCN1.S=C(S)N1CCOCC1,> 100 µM (inactive),0.661 µM (active),> 100 µM (inactive),0.811 µM (active),6.76 µM (inactive),1.46 µM (inactive),> 100 µM (inactive),1.47 µM (inactive),28.4 µM (inactive),> 100 µM (inactive),2.43 µM (inactive),> 100 µM (inactive),2.68 µM (inactive),1.4 µM (inactive),9.68 µM (inactive),> 100 µM (inactive),7.59 µM (inactive),> 100 µM (inactive),1.04 µM (active),2.55 µM (inactive)
COc1ccc2c(c1)C(=O)C1(C2)[C@H](c2ccccc2)C2C(=O)c3cc(OC)ccc3C2[C@H]1c1ccccc1 (stereo not given in full),> 100 µM (inactive),> 100 µM (inactive),> 100 µM (inactive),> 100 µM (inactive),> 100 µM (inactive),> 100 µM (inactive),> 100 µM (inactive),> 100 µM (inactive),> 100 µM (inactive),> 100 µM (inactive),15.1 µM (inactive),> 100 µM (inactive),> 100 µM (inactive),43.7 µM (inactive),> 100 µM (inactive),> 100 µM (inactive),> 100 µM (inactive),> 100 µM (inactive),> 100 µM (inactive),> 100 µM (inactive)
O=c1c2sc3ccccc3sc=2c(=O)c2c(Cl)c(Cl)c(Cl)c(Cl)c12,> 100 µM (inactive),> 100 µM (inactive),> 100 µM (inactive),> 100 µM (inactive),> 100 µM (inactive),34.8 µM (inactive),> 100 µM (inactive),> 100 µM (inactive),> 100 µM (inactive),> 100 µM (inactive),> 100 µM (inactive),> 100 µM (inactive),> 100 µM (inactive),42 µM (inactive),> 100 µM (inactive),> 100 µM (inactive),> 100 µM (inactive),> 100 µM (inactive),> 100 µM (inactive),> 100 µM (inactive)
COc1cc(C)c2c(=O)c3ccccc3n(C)c2c1,20.8 µM (inactive),26.9 µM (inactive),35 µM (inactive),11.8 µM (inactive),26.9 µM (inactive),17.1 µM (inactive),25.6 µM (inactive),29.2 µM (inactive),27.1 µM (inactive),26.7 µM (inactive),24.3 µM (inactive),30.5 µM (inactive),21.6 µM (inactive),> 10 µM (inactive),30.5 µM (inactive),15.5 µM (inactive),> 10 µM (inactive),34.8 µM (inactive),15.6 µM (inactive),45.3 µM (inactive)
